{
  "source": "patent US20250057910A1",
  "about": "“Application of Polypeptide in Preparation of Product for Preventing or Treating Skin Injury Diseases” (Sichuan Gooddoctor Panxi Pharmaceutical Co., Ltd., priority 2021, published 2025)",
  "key": {"[1]": {"system": "Transgenic zebrafish with vascular green fluorescence", "assay": "Angiogenesis in zebrafish with simvastatin-induced microvessel deficiency", "type": "in vivo", "conditions": "intravenous injection 12.5, 25.0 and 50.0 mg/mL, 10 nL, 2 days, vs model control", "experimental": "Experimental animals: Transgenic zebrafish with vascular green fluorescence, raised in water for culturing fish at 28° C. (water quality: 200 mg of instant dissolving sea salt being added to every 1 L of water made by reverse osmosis, with a conductivity of 450-550 μS/cm, a pH of 6.5-8.5 and a hardness of 50-100 mg/L CaCO3), at the age of 1 day post fertilization (1 dpf). The animals were provided by the fish breeding center of Hangzhou Hunter Biotechnology Co., Ltd. with the experimental animal use license number of SYXK (Zhejiang) 2012-0171, and the breeding management complied with the requirements of international AAALAC certification (certification number: 001458).\nExperimental method: 1 dpf transgenic zebrafish with vascular green fluorescence were randomly selected and placed in a 6-well plate, with 30 fish per well (per experimental group). […] Treatment was performed at 28° C. for 2 days, 10 zebrafish were randomly selected in each experimental group and placed under a fluorescence microscope to take photos, the data were analyzed and collected using NIS-Elements D 3.20 advanced image processing software, the subintestinal vascular area and the number of subintestinal vascular branches were analyzed, and the statistical analysis results of these indexes were used to evaluate the efficacy of the samples of promoting angiogenesis."}, "[2]": {"system": "HMEC-1 cells (human microvascular endothelial cells)", "assay": "Proliferation of HMEC-1 cells (CCK-8)", "type": "cell-based", "conditions": "48 hours, 0% serum medium, FIG. 2", "experimental": "(§1) Experimental method: Human microvascular endothelial cells (HMEC-1 cells) were cultured in 10% serum medium at 37° C. and 5% CO2, the culture fluid was changed every 1-2 days, and the cell concentration was controlled to be 4*10^6 cells/mL for passaging. The cells were collected and prepared into a concentration of 4*10^4 cells/mL with a serum-free medium, seeded into a 96-well cell culture plate with 100 uL per well, i.e., 4000 cells/well, and cultured at 37° C. and 5% CO2 to be adherent.\nThe polypeptide was dissolved in PBS solution and prepared into a stock solution with a concentration of 1 mg/mL. The polypeptide stock solution was prepared with 0% serum medium to test concentrations as the experimental groups; in the same manner, recombinant human vascular endothelial growth factor VEGF (100 ng/mL) was prepared and added as positive control; and for the blank control group, the same volume of 0% serum medium without drugs was added. For all the groups, 5 duplicate wells were incubated at 37° C. and 5% CO2 for 48 hours. The CCK-8 was used to detect cell proliferation: serum-free medium containing 10% CCK-8 was added to each well, and absorbances were measured at 450 nm by microplate reader after incubation in an incubator for 2 hours."}, "[3]": {"system": "Balb-3T3 cells (mouse embryo fibroblasts)", "assay": "Proliferation of Balb-3T3 cells (CCK-8)", "type": "cell-based", "conditions": "48 hours, 2.5% FBS maintenance medium, FIG. 3", "experimental": "as §1, with “Mouse embryo fibroblasts (Balb-3T3” for “Human microvascular endothelial cells (HMEC-1”, “3* 10^4” for “4*10^4”, “2.5% FBS maintenance” for “a serum-free”, “3000” for “4000”\nThe polypeptide was dissolved in 2.5% FBS maintenance medium and prepared into a stock solution with a concentration of 1 mg/mL. The polypeptide stock solution was prepared with 2.5% FBS maintenance medium to test concentrations as the experimental groups; in the same manner, recombinant human basic fibroblast growth factor FGF (50 ng/mL), and recombinant human platelet derived growth factor PDGF-BB (30 ng/mL) were prepared and added as positive control; and for the blank control group, the same volume of 2.5% FBS maintenance medium was added. For all the groups, 5 duplicate wells were incubated at 37° C. and 5% CO2 for 48 hours. CCK-8 was used to detect cell proliferation: the serum-free medium containing 10% CCK-8 was added to each well, and absorbances were measured at 450 nm by microplate reader after incubation in an incubator for 2 hours."}, "[4]": {"system": "SD rats", "assay": "Healing of acute mechanical skin injuries in rats", "type": "in vivo, rat", "conditions": "for Wound healing rate: rats, acute mechanical injury, topical once a day, polypeptide 8 μg/cm^2, GeneTime 40 IU/cm^2, Mean ± SD, n = 6", "experimental": "Experimental animals: SD male rats, SPF grade, 6 weeks old, weighing 180-220 g, from Beijing Vital River Laboratory Animal Technology Co., Ltd.; animal license number: SCXK (Beijing) 2016-0006; and certification number: NO.110011210104746538.\nExperimental method: SPF grade SD rats were housed in clean and sterilized cages, and were given water and feeds and padding replacement at regular intervals every day. The cultivation was kept at a temperature of 20-26° C. with a humidity of 40%-70%. The rats were kept for one week to adapt to the environment. According to the random grouping method, the animals were divided into 3 groups: model control group (normal saline), GeneTime group (40 IU/cm^2, recombinant human epidermal growth factor topical solution, from Shenzhen Watsin Genetech Ltd.), and subject polypeptide group (8 μg/cm^2), with 6 animals in each group. After the rats were successfully anesthetized by intraperitoneal injection of 3% pentobarbital sodium, the hair at 1 cm from the expected wound edge was cut off, the expected wound area was first disinfected with iodophor, then locally disinfected with 75% alcohol, and a round full layer of skin wound with a diameter of 1.5 cm was made at the middle of the ear line down to 4 cm below the back, near the cervical side, with the spine as the middle line, as deep as the muscular layer. The same sized rubber ring was used to fix the surrounding skin to form an animal model of acute mechanical injury. After modeling, the rats' wounds were exposed to the environment and fed in individual cages. Upon changing dressings, debridement was first performed with iodophor, and then the wound was washed with a sterile normal saline and wiped to dryness. Rats in each group were given 40 μL of corresponding drug solution by locally applying to the wound once a day periodically. On Days 0, 3, 7, 10 and 14 of administration, the wounds of each group of rats were photographed, the areas of the wounds were calculated with image analysis software (Image J), and the wound healing rates were calculated according to the formula."}},
  "note": "Ends that are not written are not given here.",
  "data": [
    {"sequence": "PAAEPVPL [polypeptide]", "values": [
      {"measurement": "Subintestinal vascular area (area of regenerated blood vessels)", "setting": "[1]; FIG. 6", "result": "significantly promote the increase of the subintestinal vascular area"},
      {"measurement": "Number of subintestinal vascular branches", "setting": "[1]; FIG. 7", "result": "the increase of the number of subintestinal vascular branches"},
      {"measurement": "Proliferation-promoting effect on the HMEC-1 cell line", "setting": "[2]", "result": "significant effect of promoting proliferation"},
      {"measurement": "Proliferation-promoting effect on the Balb-3T3 cell line", "setting": "[3]", "result": "significant effect of promoting proliferation"},
      {"measurement": "Wound healing rate", "setting": "[4]; Day 0 (baseline)", "result": "0.00 ± 0.00", "unit": "%"},
      {"measurement": "Wound healing rate", "setting": "[4]; Day 3", "result": "−23.77 ± 6.16", "unit": "%"},
      {"measurement": "Wound healing rate", "setting": "[4]; Day 7", "result": "−10.78 ± 7.90", "unit": "%"},
      {"measurement": "Wound healing rate", "setting": "[4]; Day 10", "result": "18.90 ± 17.63", "unit": "%"},
      {"measurement": "Wound healing after mechanical skin injury in rats (statement in words)", "setting": "[4]; Day 14, 8 μg/cm^2, vs model control", "result": "significant promotion of wound healing"},
      {"measurement": "Wound healing rate", "setting": "[4]; Day 14", "result": "88.42 ± 4.57", "unit": "%"}
    ]}
  ]
}
